This is an account of results in patent US7253306B2, “Pharmaceutical drug candidates and methods for preparation thereof” (Neurochem (International) Limited, priority 2003, dated 2007).

The nature of the data set: Partition coefficient water/toluene. The data set is classed as physicochemical.

`O=S1(=O)CCCO1` [1,3-propane sultone]: the “partition coefficient for water/toluene” value is on record as 1.4.
